Test [1] is described as follows: ferrous iron (Fe++) binding capacity of LF. As to conditions: FIG. 3. From the text:
As noted above, LF binds ferrous iron (Fe++) and controls iron distribution throughout the body and its ability to bind to inflammatory and other cell membranes and impact the activities of these cells through its iron binding activities and other mechanisms. The inventors hypothesized that the antibacterial effect may be linked to the iron binding activity of LF and that this antibacterial effect may be disrupted by nitration.
However, sodium peroxinitrite caused changes that went far beyond the mere nitration of a few tyrosine residues to include destruction of tyrosine and tryptophan which at least in part were converted to unidentified reaction products. Nitration can occur as a consequence of the formation of reactive nitrogen species in the body and as a result of drug or chemical reactions, and/or environmental toxins in polluted air, water, or other routes of intake.

A further test concerns E. coli (ATCC 25922). Put plainly: standard broth dilutions susceptibility test, read at 600 nm. In kind it is cell-based. As for the experimental part:
The following methods were used to conduct the experiments described in Examples 1-3, below: The experiments were conducted using the standard broth dilutions susceptibility test (Jorgensen, J. H.; Turnidge, J. D., Susceptibility test methods: dilution and disk diffusion methods. In Manual of Clinical Microbiology, Eleventh Edition, American Society of Microbiology: 2015; pp 1253-73). Briefly, 1 μl of glycerol stock aliquot of E. coli (ATCC 25922) was inculcated into Tryptic Soya agar (TSA) (Sigma Aldrich 22091) plates and incubated at 37° C. for 24 hrs. Subsequently, 3-5 separate colonies were selected and transferred into 4 ml Tryptic Soya broth (TSB) (Sigma Aldrich 22092) and incubated at 37° C. for 24 hrs. After incubation, samples were diluted 4 ml into 50 ml TSB to make E. coli stock. 200 μl samples were then placed into wells of a 96-microwell plate. All samples were prepared in TSB, (Blank) using TSB, ERGO (OXIS International), LF (Sigma Aldrich) and NLF were diluted to 1 mg/ml. The nitration reaction was prepared following the method reported by Selzle et al (Determination of nitration degrees for the birch pollen allergen Bet v 1. Analytical and Bioanalytical Chemistry 2013, 405(27):8945-49). According to this procedure, 400 μl aliquots of 5.0 mg/ml (±5%) LF in aqueous solution were pipetted into glass vials. […] Using the plate reader (Tecan Infinite, M1000 PRO). […]

For the compound `C[N+](C)(C)[C@@H](Cc1c[nH]c(=S)[nH]1)C(=O)[O-]` [ERGO, 3-(2-Sulfanylidene-1,3-dihydroimidazol-4-yl)-2-(trimethylazaniumyl)propanoate], the “effect of ERGO on the ferrous iron (Fe++) binding capacity of LF” value in test [1] is “does not appear that the ability of ERGO to increase the anti-bacterial activity of LF results from binding of Fe++ on LF”. The “growth of E. coli” value in the test with E. coli (ATCC 25922) (LF 1 mg/ml or 2 mg/ml, ERGO 5 mM or 50 mM, compared to growth of E. coli without additions, FIGS. 1A and 1B) was “reduced the growth of E. coli”. In addition, the “dependence of retained anti-bacterial activity on ERGO concentration” value in the test on E. coli (ATCC 25922) (LF exposed to nitrating agents, various concentrations of ERGO, FIG. 2) is listed as “related to the concentration of ERGO added”.
